Patent US12577247B2 (BUGWORKS RESEARCH, INC., priority 2021, dated 2026)
Read-outs that look alike come from different tables or passages of the source.

Key:
A2A receptor = biological target: T1, A2A receptor (Homo sapiens, UniProt P29274); assay: A2aR antagonism IC50, cAMP TR-FRET in HEK-293 cells, high concentration of adenosine (30 μM); format: cell-based; conditions: HEK-293 cells expressing A2A receptor; agonist adenosine 30 μM; 2% HSA; inhibition of cAMP; read-out: A2AR IC50 (nM) (@30 μM Adenosine);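 further: compounds added 10 min before adenosine, then 30 min stimulation at room temperature in buffer with 100 µM rolipram and 30 µM EHNA, signal read 1 h after detection reagents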
T1 construct: host or cells: HEK-293

[1] = system: human Peripheral blood mononuclear cells (PBMCs); assay: Cytokine restoration assay in human PBMCs (IL-2, TNF-α) under NECA; format: cell-based; conditions: PBMC, NECA 5 μM, anti CD3/28 Dynabeads, 48 hours
Text: The ability of the invention compounds disclosed herein to restore the cytokines (IL-2 and TNF-α) release under adenosine agonist (NECA) environment evaluated using human Peripheral blood mononuclear cells (PBMCs). Peripheral blood was collected from healthy adult individuals in vacutainer tube. Peripheral blood mononuclear cells (PBMCs) were isolated via density gradient centrifugation, which uses Ficoll (Histopaque buffer) combined with short, low-speed centrifugation, to separate different cell populations. Diluted defibrinated blood was layered on a Ficoll and centrifuged at 1800 rpm for 20 minutes at 22° C. Differential migration of cells during centrifugation results in the formation of layers containing different cell types. The bottom layer contains erythrocytes. Remaining cells (i.e., lymphocytes, monocytes, and platelets) that are not dense enough to penetrate the Ficoll media layers (densities of 1.0770 g/ml), forms a buffy coat at the interface between the upper plasma layer and the Ficoll media layer. After carefully collected the buffy coat excess of platelets, Ficoll and plasma were removed by washing it with isotonic sterile phosphate buffered saline (PBS) and resulting cell pellet was resuspended in RPMI media with 5% FBS an P/S. The isolated PBMCs were allowed to be conditioned for an hour at 37° C. in a CO2 incubator. These cells were subsequently used for specific downstream assay. Isolated PBMC (3×10^5 cells/200 μl) were plated in 96 well microtiter plate in RPMI media with 5% FBS in presence of 100 units of penicillin plus 100 μg/ml streptomycin. NECA was added at a final concentration of 5 μM, control wells were maintained without NECA suppression (i.e., no NECA control). The assay plates were incubated at 37° C. for 4 hours in a CO2 incubator. Various concentrations of test compounds were added into respective wells in triplicates. Pre-washed anti CD3/28 Dynabeads (2.5 μL) was added for CD4 and CD8 + T-cell stimulation (to obtain a bead-to-cell ratio of 1:1). The assay plate was incubated at 37° C. in 5% CO2 and 20% ambient O2 maximum for 48 hours. At the end of 48 hours, the activated PBMC were harvested, and culture supernatants were used directly for further analysis. Forty-eight hours post treatment, 15 μL of cell-free supernatant was collected and assayed for secreted IL2 using the human Interleukin 2 (hIL2)—LANCE Ultra Detection Kit (Perkin Elmer). Similarly, level of soluble Tumor Necrosis Factor alpha (TNFα) was determined using human TNFα LANCE Ultra Detection Kit (Perkin Elmer). T-FRET signal was measured with Tecan spark multimode plate reader. Data was analyzed by graph-pad prism9. EC50 s of the compounds of Formula (I) in restoration of cytokine release under adenosine agonist from the human PBMCS are presented in Table 2

[2] = Plasma protein binding, equilibrium dialysis, rat; format: in vitro ADME; conditions: plasma (10% plasma, extrapolated to 100% plasma), Sprague-Dawley plasma, 18 hours at 37° C.
Description: (§1) Protein binding is measured using the equilibrium dialysis technique. Compound is added to 10% plasma giving a concentration of 10 μM and dialysed with isotonic buffer for 18 hours at 37° C. The plasma and buffer solutions are analysed using generic LC UV/MS and the first apparent binding constant for the compound derived. The binding constant is then used to determine the % free in 100% plasma
(§2) The percentage of plasma bound/unbound fraction preparation was calculated as follows
(§3) [formula] [formula] where, • Tc=Total plasma concentration was determined by the calculated concentration on the plasma side of the chamber • Fc=[…] was determined by the calculated concentration on the buffer side of the chamber • To=Total compound concentration determined before analysis.

[3] = Plasma protein binding, equilibrium dialysis, human; format: in vitro ADME; conditions: plasma (10% plasma, extrapolated to 100% plasma), 18 hours at 37° C.
Description: as §1, §2, §3

[4] = Metabolic stability and intrinsic clearance in human hepatocytes (with IVIVE); format: in vitro ADME; conditions: Human hepatocytes
Description: (§4) The metabolic stability was expressed as the percentage of parent remaining is calculated from the peak area ratio of NCE remaining after incubation (tx) compared to the time zero (t0) incubation. The percentage of parent test compound remaining at each time point was calculated by comparing the peak area ratio of test compound after incubation (tx) with peak area of time zero (t0) incubation. Similarly, half-life (t½) was calculated using following equation:
(§5) [formula] The intrinsic clearance (Clint) was calculated using the following equations:
(§6) [formula] Scaling factors to represent […] million cells/gm liver and liver/kg body wt.

Human hepatocytes = assay: as above; format: in vitro ADME; conditions: Human; for Predicted CLh: IVIVE from hepatocyte CLint; for Hepatocyte Clint: Table 6 (IVIVE)
Description: as §4, §5, §6

[5] = Cell based permeability/efflux Caco-2 assay; format: in vitro ADME; conditions: human, Caco-2, 10 μM; for Papp A→B at 120 min, 10 µM: apical to basolateral; for Papp B→A at 120 min, 10 µM: basolateral to apical
Description: Briefly, Permeability in a Caco-2 monolayer was determined at 10 μM. High density Caco-2 cells were obtained with fluent monolayer with trans epithelial electrical resistance (TEER) values greater than 350 ohm·cm^2 in the assay at 21 days of culture in 24 or 96 well insert plates. TEER was measured both before and after performing all the transport experiments. […] Transport buffer, 800 μL Hanks balanced salt sodium (HBSS) (pH 7.4) consisting of 10 mM HEPES without proteins was first dispensed to the basal side of the monolayer. The assay was then initiated by adding 200 μL, of compound solution to the apical side (all test compounds were diluted in HBSS, pH 6.5, with 1% DMSO as co-solvent). Two μL and 200 μL of samples were withdrawn before and at 45- and 120-min post addition of test compound, from the apical donor compartment and the base lateral receiver compartment, respectively. The transwell plates were kept for 120 min of incubation time at 37° C., 5% CO2, 95% relative humidity. At the end of incubation, sample solutions from both donor and receiver wells were mixed with acetonitrile containing internal standard (IS) immediately. Samples were analyzed including starting dosing solution, donor solution, and receiver solution by LC/MS/MS (API-4500). Concentrations of test compound was expressed as area ratio of analytes versus internal standard (IS).
A passive permeability was determined by complete chemical inhibition of the three major efflux transporters, ABCB1 (P-gp), ABCG2 (BCRP) and […] in Caco-2 cells using a cocktail of chemical inhibitors quinidine (P-gp), sulfasalazine (BCRP) and benzbromarone (MRP2)
The mean apparent permeability (Papp, X 10^−[…]) is calculated as follows
[formula] Where dq/dt=rate of transport (rate of transport of compound in the receiver compartment), Co=initial concentration in the donor compartment, A=surface area of the effective filter membrane. Plot the cumulative amount of transported drug against time to obtain rate transport. The percent recovery was calculated using the following equation

[6] = read-out: IL-2 restoration EC50
[7] = read-out: TNF-α restoration EC50

T1 sequence (P29274 whole entry): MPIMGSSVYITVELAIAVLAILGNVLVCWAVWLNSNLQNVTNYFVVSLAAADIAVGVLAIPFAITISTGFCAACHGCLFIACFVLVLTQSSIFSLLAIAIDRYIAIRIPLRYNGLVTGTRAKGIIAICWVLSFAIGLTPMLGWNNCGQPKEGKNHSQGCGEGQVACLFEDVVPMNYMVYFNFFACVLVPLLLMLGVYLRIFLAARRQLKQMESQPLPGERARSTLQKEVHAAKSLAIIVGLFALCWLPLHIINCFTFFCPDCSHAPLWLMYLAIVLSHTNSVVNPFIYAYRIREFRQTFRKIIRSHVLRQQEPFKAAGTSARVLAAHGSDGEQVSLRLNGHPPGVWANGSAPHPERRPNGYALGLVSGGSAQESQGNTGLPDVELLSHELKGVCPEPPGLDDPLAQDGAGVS

Compound	IC50 (A2A receptor) [nM]	EC50 [1, 6] [nM]	EC50 [1, 7] [nM]	fraction unbound at 18 h, 10 µM [2]	fraction unbound at 18 h, 10 µM [3]	Hepatocyte Clint [4] [µL/min/1e6 cells]	Predicted CLh (Human hepatocytes) [mL/min/kg]	Hepatocyte Clint (Human hepatocytes) [μl/min/10^6]	Papp A→B at 120 min, 10 µM [5] [×10⁻⁶ cm/s]	Papp B→A at 120 min, 10 µM [5] [×10⁻⁶ cm/s]
CCc1c(C)nn2c(N)c(C#N)c(NCCc3ccn(C4COCC4CO)n3)nc12 (single isomer, unassigned; (-)) [Example 122b, (−)-7-amino-3-ethyl-5-((2-(1-(4-(hydroxymethyl)tetrahydrofuran-3-yl)-1H-pyrazol-3-yl)ethyl)amino)-2-methyl pyrazolo[1,5-a]pyrimidine-6-carbonitrile]	130	1.4	1.2	0.139	0.117	< 4.1	8.6	<4.1	14.4	15.9
Cc1cccc(CCNc2nc3c(C)c(C)nn3c(N)c2C#N)n1 [Example 13, 7-amino-5-((2-(6-methylpyridin-2-yl)ethyl)amino)-2,3-dimethylpyrazolo[1,5-a]pyrimidine-6-carbonitrile]	300	5.5	5.2	0.0964	0.05	< 8.2	12	<8.2	58	19.5
CCc1c(C)nn2c(N)c(C#N)c(NCCc3ccn(C4(CO)CC4)n3)nc12 [Example 39, 7-amino-3-ethyl-5-((2-(1-(1-(hydroxymethyl)cyclopropyl)-1H-pyrazol-3-yl)ethyl)amino)-2-methylpyrazolo[1,5-a] pyrimidine-6-carbonitrile]	120	4.2	2.3	0.249	0.0913	< 8.2	12	<8.2	18.4	18.5
